# Results from patent US20220160723A1, “PHARMACOLOGICAL MITIGATION OF LATE-STAGE TOXEMIA” (priority 2019, published 2022).
# “Also recorded” adds a separate entry of the source. Read-outs that look alike come from different tables or passages of the source.
# Tests used:
# [1] = system: HBMEC monolayer; experiment: Transwell monolayer permeability (Evans blue dye diffusion); assay type: cell-based, human; settings: for ET induced disruption of monolayer integrity: HBMEC in transwell inserts, ET 250 ng/ml, 24 h, inhibitor 50 μM (FIG. 2E, 3G)
# [2] = system: ET-induced footpad swelling (edema); experiment: Mouse footpad swelling (edema) assay after ET injection; assay type: in vivo, mice; settings: for protection against ET-induced footpad swelling (edema): in vivo mouse model, pre-treated mice, summary statement; for footpad swelling (edema) following ET injection: mice, 0.15 μg ET/paw (FIG. 5)
# [3] = system: Human Brain Microvascular Endothelial cells (HBMEC); assay type: cell-based; settings: for ET induced cortical actin rearrangement: HBMEC, 4 h; for ET-mediated actin remodeling / rearrangement: cultured endothelial cells (HBMEC), summary statement
# [4] = system: Rac1; experiment: Rac1-GTP pull-down with PAK-Beads and western blot; assay type: cell-based, human; settings: HBMEC, ET 250 ng/ml
# Protocol: FIGS. 2A-2E show ET induced actin rearrangement is dependent on Rac1 activation. […] Whole cell lysates were incubated with PAK-Beads, which specifically bind to GTP-bound Rac1. Bead bound Rac1-GTP and total Rac1 levels in cell lysate were determined by western blot with anti-Rac1 antibody. ET induced significant increase in Rac1-GTP (i.e. active Rac1) levels (see FIG. 2B). […] Cells were fixed and stained with cell mask green to visualize cytoplasm. Cell area was quantified from 8 wells for each treatment («-number of cells) using automated image analysis software. […] MRMEC were grown to confluence in transwell inserts, and treated with ET (250 ng/ml) for 24h, in the presence or absence of Rac1 inhibitor NSC23766 (50 μM). Changes in monolayer permeability were assessed by assaying the diffusion of Evans blue dye from apical to basal chamber of transwell inserts. […] Data represent mean changes in monolayer permeability from 2 independent experiments. p value indicates standard deviation.
# FIGS. 3A-3H show ET-mediated Rac1 activation and actin rearrangement is dependent on an early induction of IGF-1R, PI3K and MEK signaling. […] Activation of IGF-1R in ET˜ireated and control cells was assessed by monitoring the levels of IGF-1R phosphorylated at Tyrosine 1135 and 1136 relative to total IGF-1R in whole cell lysates by western blot. ET induced a rapid (within 10 minutes), but transient activation of IGF-1R. […] Cells were fixed and stained with CellMask green to visualize cytoplasm. Cell area was quantified from 8 wells for each treatment (n-number of cells) using automated image analysis software. […] Whole cell lysates were incubated with PAK-Beads, which specifically bind to GTP-bound Rac1 . Bead bound Rac1-GTP and total Rac1 levels in cell lysate were determined by western blot with anti-Rac 1 antibody. […] Total and phosphorylated […] (Thr 308 and Ser 473), as well as those of ERK (Thr 202 and Tyr 204) was determined by western blot. ET induced a rapid (within 10-20 minutes) phosphorylation of AKT and ERK. […] Changes in monolayer to permeability were assessed by assaying the diffusion of Evans blue dye from apical to basal chamber of transwell. […] Data represent mean changes in monolayer permeability from 2 independent experiments. p value indicates standard deviation. […] Whole cell lysates were incubated with PAK-Beads, which specifically bind to GTP-hound RacL Bead bound Rac1-GTP and total Rac1 levels in cell lysate were determined by western blot with anti-Rac1 antibody.
# [5] = system: CFL1; experiment: Western blot of total and phosphorylated CFL1 (Serine 3); assay type: cell-based, human; settings: HBMEC
# Protocol: FIGS. 4A-4I show ET induced IGF-1R, MEK and Rac1 signaling activate (dephosphorylate) the actin depolymerizing protein coflin (CFL1). […] ET induced a significant decrease in phosphorylated CFL1. (see FIG. 4B). FIG. 4B show levels of phosphorylated CFL1 relative to total CFL1 quantified from 2 independent experiments. p values indicate standard deviation. […] Total and phosphorylated CFL1 (Serine 3) levels were determined by western blot. […] (see FIG. 4D). FIG. 4D show levels of phosphorylated CFL1 relative to total CFL1 in whole cell lysates from HBMEC treated with ET in the presence or absence of IGF-1R inhibitor AG1024 and quantified from 2 independent experiments. […] Total and phosphorylated CFL1 (Serine 3) levels were determined by western blot. […] Total and phosphorylated CFL1 (Serine 3) levels were determined by western blot. […] (see FIG. 4G). FIG. 4G show levels of phosphorylated CFL1 relative to total CFL1 in whole cell lysates from HBMEC treated with ET in the presence or absence of the Rac1 inhibitor NSC23766 and quantified from 2 independent experiments. p values indicate standard deviation. […] Activation (dephosphorylation) of SSH1 in ET-treated and control cells was assessed by monitoring the levels of SSHI phosphorylated at Serine 978 relative to total SSHI in whole cell lysates by western blot. SSHI phosphorylation was reduced relative to untreated control cells at 240 min after ET treatment. […] Total and phosphorylated CFL1 (Serine 3) levels were determined by western blot.
# [6] = system: Human Brain Microvascular Endothelial cells (HBMEC); experiment: Medium throughput quantification of whole cell area (CellMask green); assay type: cell-based; settings: ET 250 ng/ml, 4 h, 8 wells per treatment (FIG. 2D, 3C)
# [7] = cultured HBMEC model, summary statement
# [8] = ET 250 ng/ml, phalloidin (FIG. 3B, 3F)
# [9] = ET 250 ng/ml, 4 h (FIG. 4C, 4E, 4I)
Compound,ET induced disruption of monolayer integrity [1],"ET-mediated cell-cell barrier disruption [1, 7]",protection against ET-induced footpad swelling (edema) [2],footpad swelling (edema) following ET injection ([2]; pre-treatment 33 mg/kg),"ET induced cortical actin rearrangement [3, 8]",ET-mediated actin remodeling / rearrangement [3],ET induced Rac1 activation (Rac1-GTP) ([4]; 4 h (FIG. 3H)),"ET induced CFL1 activation (dephosphorylation) [5, 9]",footpad swelling (edema) following ET injection ([2]; pre-treatment 10 mg/kg),ET induced cell area reduction [6],ET induced Rac1 activation (Rac1-GTP) ([4]; 4 h (FIG. 3D)),ET-mediated cell-cell barrier disruption [1],footpad swelling (edema) following ET injection ([2]; pre-treatment 75 mg/kg),protection against ET-induced footpad swelling (edema) ([2]; trihydrochloride),"ET induced cortical actin rearrangement ([3]; ET 250 and 500 ng/ml, Alexa 488 phalloidin (FIG. 2C))",ET-mediated actin remodeling / rearrangement ([3]; trihydrochloride),"ET induced CFL1 activation (dephosphorylation) ([5]; ET 50, 100 and 250 ng/ml, 4 h (FIG. 4F))"
O=C(NC[C@H](O)CO)c1ccncc1Nc1ccc(I)cc1F [AS703026],significantly reduced,almost completely rescue,near complete protection; also recorded: almost complete protection,consistently block,significantly reduced,strongly inhibit; also recorded: almost completely rescue,significantly inhibited,significantly inhibited,–,–,–,–,–,–,–,–,–
"CC(C)(C)c1cc(C=C(C#N)C#N)cc(Br)c1O [AG1024, 2-[(3-bromo-5˜iert-butyl-4-hydroxyphenyl)methylidene]propanedinitile]",–,almost completely rescue,near complete protection; also recorded: almost complete protection,–,almost completely inhibited,strongly inhibit; also recorded: almost completely rescue,significantly inhibited,significantly inhibited,consistently block,completely .rescued,completely rescued,–,–,–,–,–,–
CC(C)(C)c1cc(C(=O)/C(C#N)=N/Nc2cccc(Cl)c2)no1 [ES1-09],–,–,–,–,–,–,–,–,consistently block,–,–,–,–,–,–,–,–
"CS(=O)(=O)N1CCN(Cc2cc3nc(-c4cccc5[nH]ncc45)nc(N4CCOCC4)c3s2)CC1 [GDC-0941, pictilisib]",–,–,near complete protection; also recorded: almost complete protection,–,–,–,–,–,–,–,–,almost completely rescue,consistently block,–,–,–,–
"CCN(CC)CCCC(C)Nc1nc(C)cc(Nc2ccc3nc(C)cc(N)c3c2)n1.Cl.Cl.Cl (stereo not shown) [NSC23766, N(6)˜[2-[[4˜(diethylamino)-1-methylbutyl]amino]-6-methyl-4-pyrimidinyl]-2-methyl-4,6-quinolinediamine trihydrochloride]",significantly reduced,almost completely rescue,–,–,–,–,–,significantly inhibited,consistently block,significantly reduced,completely rescued,–,–,near complete protection; also recorded: almost complete protection,almost completely inhibited,strongly inhibit; also recorded: almost completely rescue,significantly inhibited
